Reference: patent publication US6706663B2, “Herbicidal 3-heterocyclic substituted benzisothiazole and benzisoxazole compounds” (Wyeth, priority 2000, dated 2004)

What was measured:
[1] = tested on: ECHCG (Echinochloa crus-galli); test: Postemergence herbicidal evaluation; type: in vivo, (L.) Beau; details: for ECHCG herbicidal rating: postemergence
Procedure, shortened: (§1)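 Seedlings grown about two weeks in flats, sprayed, then kept under standard greenhouse care. Rated visually 4–5 weeks after treatment on a 0–9 scale (stand, vigour, malformation, size, chlorosis, overall appearance) relative to untreated control; repeat tests averaged.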

SETVI (Setaria viridis) = test: Postemergence herbicidal evaluation; type: in vivo, (L.) Beau; details: for SETVI herbicidal rating: postemergence
Procedure, shortened: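 First, seedlings are raised in flats for about two weeks. Next, compound dispersed in 50/50 acetone/water with 0.5% TWEEN 20 is sprayed at 40 psi to deliver about 0.0040–1.000 kg/ha. Plants are then maintained in the greenhouse and rated 0-9 after four to five weeks.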

[2] = tested on: TRZAWR (Wheat, Winter, cv Riband); test: Postemergence herbicidal evaluation; type: in vivo, Triticum aestivum; details: for TRZAWR herbicidal rating: postemergence
Procedure, shortened: as §1

[3] = tested on: ABUTH (Abutilon theophrasti); test: Preemergence herbicidal evaluation; type: in vivo, Medic.; details: preemergence, rated 4-5 weeks after treatment
[4] = tested on: AMBEL (Ambrosia artemisifolia); test: Preemergence herbicidal evaluation; type: in vivo, L.; details: preemergence, rated 4-5 weeks after treatment
Procedure, shortened: (§2)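 Visual 0–9 rating versus control (stand, vigor, malformation, size, chlorosis, overall appearance), scored four to five weeks post-treatment. Preemergence spray of aqueous acetone solution onto freshly seeded soil cups; plants grown under conventional greenhouse care.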

[5] = tested on: CASOB (Cassia obtusifolia); test: Preemergence herbicidal evaluation; type: in vivo, L.; details: preemergence, rated 4-5 weeks after treatment
Procedure, shortened: as §2

[6] = tested on: CHEAL (Chenopodium album); test: Preemergence herbicidal evaluation; type: in vivo, L.; details: preemergence, rated 4-5 weeks after treatment
Procedure, shortened: as §2

[7] = tested on: IPOHE (Ipomoea hederacea); test: Preemergence herbicidal evaluation; type: in vivo, (L.) Jacq.; details: preemergence, rated 4-5 weeks after treatment
[8] = tested on: GLXMAW (Soybean, Williams); test: Preemergence herbicidal evaluation; type: in vivo, Glycine max, (L.) Merr. cv Williams; details: preemergence, rated 4-5 weeks after treatment
ZEAMX (Corn, Field) = test: Preemergence herbicidal evaluation; type: in vivo, Zea mays, L.; details: preemergence, rated 4-5 weeks after treatment
[9] = tested on: ECHORC (Echinochloa oryzoides); test: Flooded paddy, preemergence weed control; type: in vivo, Echinochloa oryzoides (Ard.) Fritsch.; details: rated 3-4 weeks after treatment, 0-9 rating scale
Procedure, shortened: (§3)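 Seeds or propagating organs were sown in the top 0.5 cm of silt loam soil, flooded, and the water kept 1.5 to 3 cm above the soil surface throughout. Plants were grown in the greenhouse and rated visually on a 0-9 scale against a control.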

CYPIR (Cyperus iria) = test: Flooded paddy, preemergence weed control; type: in vivo; details: rated 3-4 weeks after treatment, 0-9 rating scale
Procedure, shortened: as §3

[10] = tested on: CYPSE (Cyperus serotinus); test: Flooded paddy, preemergence weed control; type: in vivo, Rottb.; details: rated 3-4 weeks after treatment, 0-9 rating scale
Procedure, shortened: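 Herbicidal effect was scored visually on a 0–9 scale against an untreated control 3–4 weeks after treatment. Compounds were applied preemergence as 50/50 v/v aqueous/acetone mixtures into flood water (1.5–3 cm deep over silt loam), at roughly 0.0080 to 0.1250 kg/ha active ingredient.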

[11] = tested on: MOOVA (Monochoria vaginalis); test: Flooded paddy, preemergence weed control; type: in vivo, Presl.; details: rated 3-4 weeks after treatment, 0-9 rating scale
Procedure, shortened: as §3

[12] = tested on: SAGPY (Sagittaria pygmaea); test: Flooded paddy, preemergence weed control; type: in vivo, L.; details: rated 3-4 weeks after treatment, 0-9 rating scale
Procedure, shortened: as §3

ORYSAT (Rice, Tebonnet) = test: Flooded paddy, post-transplant rice tolerance; type: in vivo, Oryza sativa, (L.) Tebonnet; details: flooded paddy, post-transplant rice, rated 3-4 weeks after treatment, 0-9 rating scale
Procedure, shortened: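 Steps: transplant two ten-day-old seedlings into silt loam; flood to 1.5-3 cm above soil; apply herbicide post-transplant; maintain water on greenhouse benches; rate stand, vigor, malformation, size and chlorosis on a 0-9 visual scale versus control.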

Molecule: 1-methyl-3-[3-(1,3-oxathiolan-2-yl)-1,2-benzisothiazol-5-yl]-6-(trifluoromethyl)uracil S′,S′-dioxide [Compound 32]
- Postemergence herbicidal rating, ECHCG ([1]; rate 0.0320 kg/ha): 3.0
- Postemergence herbicidal rating, ECHCG ([1]; rate 0.0620 kg/ha): 5.0
- Postemergence herbicidal rating, SETVI (SETVI (Setaria viridis); rate 0.0320 kg/ha): 3.0
- Postemergence herbicidal rating, SETVI (SETVI (Setaria viridis); rate 0.0620 kg/ha): 6.0
- Postemergence herbicidal rating, TRZAWR ([2]; rate 0.0320 kg/ha): 5.0
- Postemergence herbicidal rating, TRZAWR ([2]; rate 0.0620 kg/ha): 5.5
- ABUTH preemergence herbicidal rating ([3]; Rate 0.0620 kg/ha): 9.0
- ABUTH preemergence herbicidal rating ([3]; Rate 0.1250 kg/ha): 9.0
- ABUTH preemergence herbicidal rating ([3]; Rate 0.2500 kg/ha): 9.0
- AMBEL preemergence herbicidal rating ([4]; Rate 0.0620 kg/ha): 9.0
- AMBEL preemergence herbicidal rating ([4]; Rate 0.1250 kg/ha): 9.0
- AMBEL preemergence herbicidal rating ([4]; Rate 0.2500 kg/ha): 9.0
- CASOB preemergence herbicidal rating ([5]; Rate 0.0620 kg/ha): 6.5
- CASOB preemergence herbicidal rating ([5]; Rate 0.1250 kg/ha): 8.0
- CASOB preemergence herbicidal rating ([5]; Rate 0.2500 kg/ha): 9.0
- CHEAL preemergence herbicidal rating ([6]; Rate 0.0620 kg/ha): 9.0
- CHEAL preemergence herbicidal rating ([6]; Rate 0.1250 kg/ha): 9.0
- CHEAL preemergence herbicidal rating ([6]; Rate 0.2500 kg/ha): 9.0
- IPOHE preemergence herbicidal rating ([7]; Rate 0.0620 kg/ha): 9.0
- IPOHE preemergence herbicidal rating ([7]; Rate 0.1250 kg/ha): 9.0
- IPOHE preemergence herbicidal rating ([7]; Rate 0.2500 kg/ha): 9.0
- GLXMAW preemergence herbicidal rating ([8]; Rate 0.0620 kg/ha): 6.5
- GLXMAW preemergence herbicidal rating ([8]; Rate 0.1250 kg/ha): 9.0
- GLXMAW preemergence herbicidal rating ([8]; Rate 0.2500 kg/ha): 9.0
- ZEAMX preemergence herbicidal rating (ZEAMX (Corn, Field); Rate 0.0620 kg/ha): 6.0
- ZEAMX preemergence herbicidal rating (ZEAMX (Corn, Field); Rate 0.1250 kg/ha): 9.0
- ZEAMX preemergence herbicidal rating (ZEAMX (Corn, Field); Rate 0.2500 kg/ha): 9.0
- herbicidal rating, ECHORC ([9]; rate 0.0320 kg/ha): 0.0
- herbicidal rating, ECHORC ([9]; rate 0.1250 kg/ha): 0.0
- herbicidal rating, CYPIR (CYPIR (Cyperus iria); rate 0.0320 kg/ha): 4.0
- herbicidal rating, CYPIR (CYPIR (Cyperus iria); rate 0.1250 kg/ha): 7.0
- herbicidal rating, CYPSE ([10]; rate 0.0320 kg/ha): 0.0
- herbicidal rating, MOOVA ([11]; rate 0.0320 kg/ha): 6.0
- herbicidal rating, MOOVA ([11]; rate 0.1250 kg/ha): 9.0

Molecule: Cn1c(C(F)(F)F)cc(=O)n(-c2ccc3snc(C(SCCO)SCCO)c3c2)c1=O [Compound 33, 1,2-benzisothiazole-3-carboxaldehyde, 5-[3,6-dihydro-3-methyl-2,6-dioxo-4-(trifluoromethyl)-1(2H)-pyrimidinyl]-, 3-[bis(2-hydroxyethyl)dithioacetal]]
- Postemergence herbicidal rating, ECHCG ([1]; rate 0.0320 kg/ha): 1.0
- Postemergence herbicidal rating, ECHCG ([1]; rate 0.0620 kg/ha): 3.0
- Postemergence herbicidal rating, SETVI (SETVI (Setaria viridis); rate 0.0320 kg/ha): 1.0
- Postemergence herbicidal rating, SETVI (SETVI (Setaria viridis); rate 0.0620 kg/ha): 4.0
- Postemergence herbicidal rating, TRZAWR ([2]; rate 0.0320 kg/ha): 4.0
- Postemergence herbicidal rating, TRZAWR ([2]; rate 0.0620 kg/ha): 5.0
- ABUTH preemergence herbicidal rating ([3]; Rate 0.0620 kg/ha): 2.0
- ABUTH preemergence herbicidal rating ([3]; Rate 0.1250 kg/ha): 9.0
- ABUTH preemergence herbicidal rating ([3]; Rate 0.2500 kg/ha): 9.0
- AMBEL preemergence herbicidal rating ([4]; Rate 0.0620 kg/ha): 2.0
- AMBEL preemergence herbicidal rating ([4]; Rate 0.1250 kg/ha): 4.0
- AMBEL preemergence herbicidal rating ([4]; Rate 0.2500 kg/ha): 8.0
- CASOB preemergence herbicidal rating ([5]; Rate 0.0620 kg/ha): 0.0
- CASOB preemergence herbicidal rating ([5]; Rate 0.1250 kg/ha): 0.0
- CASOB preemergence herbicidal rating ([5]; Rate 0.2500 kg/ha): 0.0
- CHEAL preemergence herbicidal rating ([6]; Rate 0.0620 kg/ha): 4.0
- CHEAL preemergence herbicidal rating ([6]; Rate 0.1250 kg/ha): 7.0
- CHEAL preemergence herbicidal rating ([6]; Rate 0.2500 kg/ha): 9.0
- IPOHE preemergence herbicidal rating ([7]; Rate 0.0620 kg/ha): 0.0
- IPOHE preemergence herbicidal rating ([7]; Rate 0.1250 kg/ha): 5.0
- IPOHE preemergence herbicidal rating ([7]; Rate 0.2500 kg/ha): 5.0
- GLXMAW preemergence herbicidal rating ([8]; Rate 0.0620 kg/ha): 0.0
- GLXMAW preemergence herbicidal rating ([8]; Rate 0.1250 kg/ha): 1.0
- GLXMAW preemergence herbicidal rating ([8]; Rate 0.2500 kg/ha): 3.0
- ZEAMX preemergence herbicidal rating (ZEAMX (Corn, Field); Rate 0.0620 kg/ha): 0.0
- ZEAMX preemergence herbicidal rating (ZEAMX (Corn, Field); Rate 0.1250 kg/ha): 2.0
- ZEAMX preemergence herbicidal rating (ZEAMX (Corn, Field); Rate 0.2500 kg/ha): 2.0
- herbicidal rating, ECHORC ([9]; rate 0.0320 kg/ha): 0.0
- herbicidal rating, ECHORC ([9]; rate 0.1250 kg/ha): 2.0
- herbicidal rating, CYPIR (CYPIR (Cyperus iria); rate 0.0320 kg/ha): 0.0
- herbicidal rating, CYPIR (CYPIR (Cyperus iria); rate 0.1250 kg/ha): 3.0
- herbicidal rating, CYPSE ([10]; rate 0.0320 kg/ha): 0.0
- herbicidal rating, CYPSE ([10]; rate 0.1250 kg/ha): 0.0
- herbicidal rating, MOOVA ([11]; rate 0.0320 kg/ha): 0.0
- herbicidal rating, MOOVA ([11]; rate 0.1250 kg/ha): 4.0

Molecule: Cn1c(C(F)(F)F)cc(=O)n(-c2ccc3snc(C4OCC(C[S+](C)[O-])O4)c3c2)c1=O (stereo not shown) [Compound 88, 1-methyl-3-[3-[4-[(methylsulfinyl)methyl]-1,3-dioxolan-2-yl]-1,2-benzisothiazol-5-yl]-6-(trifluoromethyl)uracil]
- ECHCG herbicidal rating ([1]; rate 0.0320 kg/ha): 5.0
- ECHCG herbicidal rating ([1]; rate 0.0620 kg/ha): 5.0
- SETVI herbicidal rating (SETVI (Setaria viridis); rate 0.0320 kg/ha): 9.0
- SETVI herbicidal rating (SETVI (Setaria viridis); rate 0.0620 kg/ha): 9.0
- TRZAWR herbicidal rating ([2]; rate 0.0320 kg/ha): 3.0
- TRZAWR herbicidal rating ([2]; rate 0.0620 kg/ha): 3.5
- Preemergence herbicidal rating ABUTH ([3]; rate 0.0620 kg/ha): 9.0
- Preemergence herbicidal rating ABUTH ([3]; rate 0.1250 kg/ha): 9.0
- Preemergence herbicidal rating ABUTH ([3]; rate 0.2500 kg/ha): 9.0
- Preemergence herbicidal rating AMBEL ([4]; rate 0.0620 kg/ha): 9.0
- Preemergence herbicidal rating AMBEL ([4]; rate 0.1250 kg/ha): 9.0
- Preemergence herbicidal rating AMBEL ([4]; rate 0.2500 kg/ha): 9.0
- Preemergence herbicidal rating CASOB ([5]; rate 0.0620 kg/ha): 5.0
- Preemergence herbicidal rating CASOB ([5]; rate 0.1250 kg/ha): 9.0
- Preemergence herbicidal rating CASOB ([5]; rate 0.2500 kg/ha): 9.0
- Preemergence herbicidal rating CHEAL ([6]; rate 0.0620 kg/ha): 9.0
- Preemergence herbicidal rating CHEAL ([6]; rate 0.1250 kg/ha): 9.0
- Preemergence herbicidal rating CHEAL ([6]; rate 0.2500 kg/ha): 9.0
- Preemergence herbicidal rating IPOHE ([7]; rate 0.0620 kg/ha): 6.0
- Preemergence herbicidal rating IPOHE ([7]; rate 0.1250 kg/ha): 7.5
- Preemergence herbicidal rating IPOHE ([7]; rate 0.2500 kg/ha): 9.0
- Preemergence herbicidal rating GLXMAW ([8]; rate 0.0620 kg/ha): 9.0
- Preemergence herbicidal rating GLXMAW ([8]; rate 0.1250 kg/ha): 9.0
- Preemergence herbicidal rating GLXMAW ([8]; rate 0.2500 kg/ha): 9.0
- Preemergence herbicidal rating ZEAMX (ZEAMX (Corn, Field); rate 0.0620 kg/ha): 3.5
- Preemergence herbicidal rating ZEAMX (ZEAMX (Corn, Field); rate 0.1250 kg/ha): 6.0
- Preemergence herbicidal rating ZEAMX (ZEAMX (Corn, Field); rate 0.2500 kg/ha): 7.0
- ECHORC herbicidal rating ([9]; rate 0.0320 kg/ha): 0.0
- ECHORC herbicidal rating ([9]; rate 0.1250 kg/ha): 0.0
- CYPIR herbicidal rating (CYPIR (Cyperus iria); rate 0.0320 kg/ha): 0.0
- CYPIR herbicidal rating (CYPIR (Cyperus iria); rate 0.1250 kg/ha): 9.0
- MOOVA herbicidal rating ([11]; rate 0.0320 kg/ha): 0.0
- MOOVA herbicidal rating ([11]; rate 0.1250 kg/ha): 9.0
- SAGPY herbicidal rating ([12]; rate 0.0320 kg/ha): 0.0
- SAGPY herbicidal rating ([12]; rate 0.1250 kg/ha): 0.0
- ORYSAT herbicidal rating (transplanted rice tolerance) (ORYSAT (Rice, Tebonnet); rate 0.0320 kg/ha): 0.0
- ORYSAT herbicidal rating (transplanted rice tolerance) (ORYSAT (Rice, Tebonnet); rate 0.1250 kg/ha): 5.0
